The values that follow come from patent publication US12421251B2, “Cystic fibrosis transmembrane conductance regulator modulating agents” (VERTEX PHARMACEUTICALS INCORPORATED, priority 2019, dated 2025).

The experiment has as its target CFTR (Homo sapiens, UniProt P13569). As to the kind of experiment: Membrane potential dye assay (FLIPR Tetra) of CFTR-mediated chloride transport in enteroid cells. The conditions noted are these: human intestinal epithelial enteroid cells, 18-24 h incubation with test compound, acute 10 μM forskolin and 300 nM Compound III; for EC50: CFTR-mediated chloride transport; for Max. Activity: chloride transport as % of triple combination positive control (% Activity). The format is cell-based. On the procedure: Base medium (ADF+++) consisted of Advanced DMEM/Ham's F12, 2 mM Glutamax, 10 mM HEPES, 1 μg/ml penicillin/streptomycin.
Intestinal enteroid maintenance medium (IEMM) consisted of ADF+++, 1×B27 supplement, 1×N2 supplement, 1.25 mM N-acetyl cysteine, 10 mM Nicotinamide, 50 ng/mL hEGF, 10 nM Gastrin, 1 μg/mL hR-spondin-1, 100 ng/mL hNoggin, TGF-b type 1 inhibitor A-83-01, 100 μg/mL Primocin, 10 μM P38 MAPK inhibitor SB202190.
Bath 1 Buffer consisted of 1 mM MgCl2, 160 mM NaCl, 4.5 mM KCl, 10 mM HEPES, 10 mM Glucose, 2 mM CaCl2.
Chloride Free Buffer consisted of 1 mM Magnesium Gluconate, 2 mM Calcium Gluconate, 4.5 mM Potassium Gluconate, 160 mM Sodium Gluconate, 10 mM HEPES, 10 mM Glucose.
Bath1 Dye Solution consisted of Bath 1 Buffer, 0.04% Pluronic F127, 20 μM Methyl Oxonol, 30 μM CaCCinh-A01, 30 μM Chicago Sky Blue.
Chloride Free Dye Solution consisted of Chloride Free Buffer, 0.04% Pluronic F127, 20 μM Methyl Oxonol, 30 μM CaCCinh-A01, 30 μM Chicago Sky Blue.
Chloride Free Dye Stimulation Solution consisted of Chloride Free Dye Solution, 10 μM forskolin, 100 μM IBMX, and 300 nM Compound III.
Human intestinal epithelial enteroid cells were obtained from the Hubrecht Institute for Developmental Biology and Stem Cell Research, Utrecht, The Netherlands and expanded in T-Flasks as previously described (Dekkers J F, Wiegerinck C L, de Jonge H R, Bronsveld I, Janssens H M, de Winter-de Groot K M, Brandsma A M, de Jong N W M, Bijvelds M J C, Scholte B J, Nieuwenhuis E E S, van den Brink S, Clevers H, van der Ent C K, Middendorp S and M Beekman J M. A functional CFTR assay using primary cystic fibrosis intestinal organoids. Nat. Med. 2013 July; 19(7):939-45.
Enteroid Cell Harvesting and Seeding
Cells were recovered in cell recovery solution, collected by centrifugation at 650 rpm for 5 min at 4° C., resuspended in TryPLE and incubated for 5 min at 37° C. Cells were then collected by centrifugation at 650 rpm for 5 min at 4° C. and resuspended in IEMM containing 10 μM ROCK inhibitor (RI). The cell suspension was passed through a 40 μm cell strainer and resuspended at 1×10^6 cells/mL in IEMM containing 10 μM RI. Cells were seeded at 5000 cells/well into multi-well plates and incubated for overnight at 37° C., 95% humidity and 5% CO2 prior to assay.
Membrane Potential Dye Assay
Enteroid cells were incubated with test compound in IEMM for 18-24 h at 37° C., 95% humidity and 5% CO2. Following compound incubations, a membrane potential dye assay was employed using a FLIPR Tetra to directly measure the potency and efficacy of the test compound on CFTR-mediated chloride transport following acute addition of 10 μM forskolin and 300 nM N-[2,4-bis(1,1-dimethylethyl)-5-hydroxyphenyl]-1,4-dihydro-4-oxoquinoline-3-carboxamide. Briefly, cells were washed 5 times in Bath 1 Buffer. Bath 1 Dye Solution was added and the cells were incubated for 25 min at ambient temperature. Following dye incubation, cells were washed 3 times in Chloride Free Dye Solution. Chloride transport was initiated by addition of Chloride Free Dye Stimulation Solution and the fluorescence signal was read for 15 min. The CFTR-mediated chloride transport for each condition was determined from the AUC of the fluorescence response to acute forskolin and 300 nM N-[2,4-bis(1,1-dimethylethyl)-5-hydroxyphenyl]-1,4-dihydro-4-oxoquinoline-3-carboxamide stimulation. Chloride transport was then expressed as a percentage of the chloride transport following treatment with 1 μM (14S)-8-[3-(2-{Dispiro[2.0.2.1]heptan-7-yl}ethoxy)-1H-pyrazol-1-yl]-12,12-dimethyl-2λ^6-thia-3,9,11,18,23-pentaazatetracyclo[17.3.1.111,14.05,10]-tetracosa-1(22),5,7,9,19(23),20-hexaene-2,2,4-trione, 3 μM ((R)-1-(2,2-difluorobenzo[d][1,3]dioxol-5-yl)-N-(1-(2,3-dihydroxypropyl)-6-fluoro-2-(1-hydroxy-2-methylpropan-2-yl)-1H-indol-5-yl)cyclopropanecarboxamide and 300 nM acute N-[2,4-bis(1,1-dimethylethyl)-5-hydroxyphenyl]-1,4-dihydro-4-oxoquinoline-3-carboxamide triple combination positive control (% Activity). […]

As a reminder, the EC50 is the concentration giving half of the maximal effect.

Chain of CFTR (P13569 with tags, fused parts or gaps DEL508-508): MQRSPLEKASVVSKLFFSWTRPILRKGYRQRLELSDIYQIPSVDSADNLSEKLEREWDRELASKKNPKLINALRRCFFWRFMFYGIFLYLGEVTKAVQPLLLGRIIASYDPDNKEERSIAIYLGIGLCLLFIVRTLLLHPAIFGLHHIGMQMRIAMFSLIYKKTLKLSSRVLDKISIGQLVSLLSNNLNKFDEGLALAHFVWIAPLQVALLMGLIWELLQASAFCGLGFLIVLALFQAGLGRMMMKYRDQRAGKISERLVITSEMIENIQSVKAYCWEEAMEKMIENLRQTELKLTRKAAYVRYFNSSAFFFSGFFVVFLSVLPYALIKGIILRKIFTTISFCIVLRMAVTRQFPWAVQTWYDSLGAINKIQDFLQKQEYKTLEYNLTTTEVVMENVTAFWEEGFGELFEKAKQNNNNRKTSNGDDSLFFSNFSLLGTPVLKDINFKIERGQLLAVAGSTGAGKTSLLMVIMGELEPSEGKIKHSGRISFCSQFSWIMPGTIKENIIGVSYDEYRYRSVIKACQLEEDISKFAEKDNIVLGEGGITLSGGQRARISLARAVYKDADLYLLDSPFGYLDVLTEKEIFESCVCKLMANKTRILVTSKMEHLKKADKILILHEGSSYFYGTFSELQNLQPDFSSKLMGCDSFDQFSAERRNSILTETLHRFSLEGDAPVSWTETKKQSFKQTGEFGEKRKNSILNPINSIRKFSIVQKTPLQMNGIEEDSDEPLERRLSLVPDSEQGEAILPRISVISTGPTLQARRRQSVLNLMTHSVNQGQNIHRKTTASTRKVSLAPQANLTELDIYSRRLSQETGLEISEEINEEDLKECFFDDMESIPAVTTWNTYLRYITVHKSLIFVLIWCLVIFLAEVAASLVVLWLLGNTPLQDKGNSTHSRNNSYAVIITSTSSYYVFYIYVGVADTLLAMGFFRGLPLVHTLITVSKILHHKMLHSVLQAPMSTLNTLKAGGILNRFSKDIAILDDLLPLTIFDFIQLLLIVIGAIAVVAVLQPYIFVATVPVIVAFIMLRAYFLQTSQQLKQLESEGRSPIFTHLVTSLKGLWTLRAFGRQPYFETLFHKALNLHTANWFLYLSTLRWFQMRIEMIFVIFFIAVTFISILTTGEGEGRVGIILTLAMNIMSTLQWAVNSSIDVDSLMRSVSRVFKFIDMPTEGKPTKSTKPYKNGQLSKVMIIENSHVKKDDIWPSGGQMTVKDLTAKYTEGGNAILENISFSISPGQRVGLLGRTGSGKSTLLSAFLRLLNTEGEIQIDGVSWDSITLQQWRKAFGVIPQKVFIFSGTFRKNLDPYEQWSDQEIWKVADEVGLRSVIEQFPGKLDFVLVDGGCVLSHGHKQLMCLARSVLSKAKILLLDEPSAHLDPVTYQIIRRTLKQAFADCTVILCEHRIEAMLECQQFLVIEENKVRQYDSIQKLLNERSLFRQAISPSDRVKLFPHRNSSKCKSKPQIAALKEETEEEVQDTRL

In the case of `Cc1cccc(C)c1-c1cc2nc(n1)NS(=O)(=O)c1cccc(c1)C(=O)N(C1CC3(CC3)C1)[C@H](CC(C)C)CO2` [Compound I, (11R)-6-(2,6-dimethylphenyl)-11-(2-methylpropyl)-12-{spiro[2.3]hexan-5-yl}-9-oxa-2λ^6-thia-3,5,12,19-tetraazatricyclo[12.3.1.14,8]nonadeca-1(17),4(19),5,7,14(18),15-hexaene-2,2,13-trione], the EC50 was below 1000 nM and the “Max. Activity” value is “+++ (+++ is >60%)”.

In the case of `[2H]C1([2H])C([2H])([2H])C12CC(N1C(=O)c3cccc(c3)S(=O)(=O)Nc3nc(cc(-c4c(C)cccc4C)n3)OC[C@H]1CC(C)C)C2` [Compound Ia, (11R)-6-(2,6-Dimethylphenyl)-11-(2-methylpropyl)-12-[(1,1,2,2-tetradeutero)spiro[2.3]hexan-5-yl]-9-oxa-2λ^6-thia-3,5,12,19-tetraazatricyclo[12.3.1.14,8]nonadeca-1(17),4(19),5,7,14(18),15-hexaene-2,2,13-trione], the half-maximal effective concentration (EC50) is below 1000 nM and the “Max. Activity” value is on record as “+++ (+++ is >60%)”.

Regarding `[2H]C1([2H])C2(CC2)C([2H])([2H])C1([2H])N1C(=O)c2cccc(c2)S(=O)(=O)Nc2nc(cc(-c3c(C)cccc3C)n2)OC[C@H]1CC(C)C` [Compound Ib, (11R)-6-(2,6-Dimethylphenyl)-11-isobutyl-2,2-dioxo-12-(4,4,5,6,6-pentadeuteriospiro[2.3]hexan-5-yl)-9-oxa-2-thia-3,5,12,19-tetrazatricyclo[12.3.1.14,8]nonadeca-1(18),4,6,8(19),14,16-hexaen-13-one], the EC50 is below 1000 nM and the “Max. Activity” value was “+++ (+++ is >60%)”.

With `[2H]C1(N2C(=O)c3cccc(c3)S(=O)(=O)Nc3nc(cc(-c4c(C)cccc4C)n3)OC[C@H]2CC(C)C)CC2(CC2)C1` [Compound Ic, (11R)-12-(5-Deuteriospiro[2.3]hexan-5-yl)-6-(2,6-dimethylphenyl)-11-isobutyl-2,2-dioxo-9-oxa-2-thia-3,5,12,19-tetrazatricyclo[12.3.1.14,8]nonadeca-1(18),4,6,8(19),14,16-hexaen-13-one], the 50% effective concentration (EC50) was below 1000 nM and the “Max. Activity” value is “+++ (+++ is >60%)”.

For the compound `[2H]C([2H])([2H])c1cccc(C([2H])([2H])[2H])c1-c1cc2nc(n1)NS(=O)(=O)c1cccc(c1)C(=O)N(C1CC3(CC3)C1)[C@H](CC(C)C)CO2` [Compound Id, (11R)-6-[2,6-di(trideutero)methylphenyl]-11-(2-methylpropyl)-12-{spiro[2.3]hexan-5-yl}-9-oxa-2λ^6-thia-3,5,12,19-tetraazatricyclo[12.3.1.14,8]nonadeca-1(17),4(19),5,7,14(18),15-hexaene-2,2,13-trione], the EC50 was below 1000 nM and the “Max. Activity” value is reported as “+++ (+++ is >60%)”.
